Ki data for one compound are collected here from ChEMBL document CHEMBL3864169, “Quinazoline Carboxamides as Selective Antagonists of Adenosine 2A Receptor” (ACS Med Chem Lett, 2016).

The experiment has as its target Adenosine receptor A2a (Homo sapiens, UniProt P29274). Briefly: Displacement of [3H]5-amino-7-[2- phenethyl]-2-(furan-2-yl)-7H-pyrazolo[4,3-e][l,2,4]triazolo[l,5-c]pyrimidine from human adenosine A2A receptor expressed in HEK293 cell membranes measured after 1 hr by TopCount scintillation counting method. On the technique in general: Loss of bound radioactivity is the signal in a displacement assay; it reports binding, not function.

Chain of Adenosine receptor A2a (P29274 whole entry): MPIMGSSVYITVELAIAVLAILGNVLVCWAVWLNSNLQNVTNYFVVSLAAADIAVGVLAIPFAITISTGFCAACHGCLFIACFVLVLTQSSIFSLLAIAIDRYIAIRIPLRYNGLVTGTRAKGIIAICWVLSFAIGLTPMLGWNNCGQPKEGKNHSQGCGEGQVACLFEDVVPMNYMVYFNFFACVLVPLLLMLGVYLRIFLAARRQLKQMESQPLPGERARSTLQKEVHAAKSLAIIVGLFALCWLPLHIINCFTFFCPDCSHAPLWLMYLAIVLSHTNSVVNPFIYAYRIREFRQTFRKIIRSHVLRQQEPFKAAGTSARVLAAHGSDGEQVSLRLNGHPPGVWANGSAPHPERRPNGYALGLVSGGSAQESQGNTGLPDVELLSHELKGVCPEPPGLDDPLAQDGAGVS

In general, Ki refers to a dissociation constant, usually derived from enzyme kinetics or from competition with a known ligand. Read a high Ki as lower affinity. In the case of `CC(C)OCc1cccc(CNC(=O)c2nc(N)nc3c(F)cccc23)n1`, affinity was put at a Ki of 1 nM.
